{
  "source": "patent US4409325A",
  "about": "“Valproate conjugation using dicarbonyls” (Syva Company, priority 1981, dated 1983)",
  "key": {"[1]": {"settings": "humans, cited from earlier work"}, "[2]": {"settings": "anticonvulsant use; cited from earlier work"}, "Antivalproate": {"system": "Antivalproate", "experiment": "Homogeneous enzyme immunoassay for valproate (absorbance difference)", "format": "biochemical", "settings": "difference in absorbance×2.667, 340 mn, 10 to 40 seconds", "excerpt": "As previously indicated, the antibodies and enzyme reagents prepared in accordance with the subject invention find particular use in immunoassays for the determination of valproate. A description of the method for carrying out the immunoassay, which is a homogeneous enzyme immunoassay, may be found in U.S. Pat. No. 3,817,837. The method involves combining the enzyme conjugate, the unknown sample suspected of containing valproate, an antibody for valproate in an aqueous buffered medium at temperatures in the range of about 10° to 50°, more usually from about 20° to 40° C., and determining the enzyme activity as compared to the enzyme activity of an assay medium having a known amount of valproate.\nIn carrying out the assay, a Gilford 300 N microsample spectrophotometer is employed with a Thermocuvette with a flow cell. All readings are made at 340 mn. The following solutions are prepared as reagents for use in the assay.\nSufficient enzyme conjugate to give\na maximum rate of ΔOD equal to\nAntivalproate optimized for assay\nThe protocol employed for carrying out an assay is as follows: A sample, 50 μl is drawn up into a diluter and dispensed with 250 μl of the assay buffer into a one ml Croan cup. A 50 μl aliquot of the diluted sample is drawn up and dispensed with a 250 μl portion of assay buffer into a second Croan cup. Into the second Croan cup is introduced 50 μl of the antibody reagent with 250 μl of the assay buffer, followed by the addition of 50 μl of the enzyme reagent and 250 μl of the assay buffer. Immediately after the enzyme addition, the entire sample is aspirated into the flow cell. After 10 seconds, a first reading is taken, followed by a second reading, after a 40 second interval from aspiration. The results are reported as the difference in absorbance×2.667."}, "[3]": {"settings": "antiepileptic; cited from earlier work"}},
  "data": [
    {"smiles": "CCCC(CCC)C(=O)O", "note": "[valproic acid, 2-propylpentanoic acid]", "values": [
      {"measurement": "metabolism", "setting": "[1]", "result": "metabolized in humans via oxidation predominantly at the positions β and ω to the carboxylic acid"},
      {"measurement": "excretion", "setting": "[1]; urine", "result": "eventually excreted in urine as the free acids or via glucuronide formation"}
    ]},
    {"smiles": "CCCC(CCC)C(=O)[O-].[Na+]", "note": "[Valproate, sodium di-n-propylacetate]", "values": [
      {"measurement": "toxicity", "setting": "[2]", "result": "low toxicity"},
      {"measurement": "ΔOD", "setting": "Antivalproate; valproate 25 μg/ml", "result": 630},
      {"measurement": "ΔOD", "setting": "Antivalproate; valproate 50 μg/ml", "result": 646},
      {"measurement": "ΔOD", "setting": "Antivalproate; valproate 75 μg/ml", "result": 666},
      {"measurement": "ΔOD", "setting": "Antivalproate; valproate 100 μg/ml", "result": 682},
      {"measurement": "ΔOD", "setting": "Antivalproate; valproate 150 μg/ml", "result": 714},
      {"measurement": "minimum level in serum required for therapeutic efficacy", "setting": "[3]", "result": "≥ 50", "unit": "µg/mL"}
    ]}
  ]
}
